Experiment [1] in a line: (§1) Activity at Insulin receptor in mouse 3T3-L1 cells assessed as glucose uptake. It is filed as cell-based.
For another experiment, the system named is 3T3-L1. The experiment is described as §1. Type of experiment: cell-based.

Active and inactive are the calls of the source. The rule behind the calls is not given here.

Take `O=C(Nc1cc(C(=O)Nc2cccc3cc(S(=O)(=O)O)ccc23)cc(C(=O)Nc2cccc3cc(S(=O)(=O)O)ccc23)c1)c1ccc2ccccc2c1`: in experiment [1], the EC50 stood at 3.7 µM. Still for that read-out and setting: as for `O=C(Nc1ccc2c(O)c(/N=N/c3ccc(/N=N/c4ccc(S(=O)(=O)O)cc4)cc3S(=O)(=O)O)c(S(=O)(=O)O)cc2c1)Nc1ccc2c(O)cc(S(=O)(=O)O)c(/N=N/c3ccc(/N=N/c4ccc(S(=O)(=O)O)cc4)cc3S(=O)(=O)O)c2c1`, the figure is 90 µM.

Regarding `O=C(Nc1cccc2cc(S(=O)(=O)O)ccc12)c1cc(NC(=O)c2cccc3ccccc23)cc(C(=O)Nc2cccc3cc(S(=O)(=O)O)ccc23)c1`, the EC50 in experiment [1] turned out to be 12.8 µM. Turning to `O=C(Nc1cc(C(=O)Nc2cccc3cc(S(=O)(=O)O)ccc23)cc(C(=O)Nc2cccc3cc(S(=O)(=O)O)ccc23)c1)c1ccc(F)cc1`, the EC50 in experiment [1] was 78.5 µM. In the case of `O=C(Nc1cccc2cc(S(=O)(=O)O)ccc12)c1cc(NS(=O)(=O)c2ccc(F)cc2)cc(C(=O)Nc2cccc3cc(S(=O)(=O)O)ccc23)c1`, the outcome in the experiment with 3T3-L1 was inactive. Regarding `O=C(Nc1cc(C(=O)Nc2cccc3cc(S(=O)(=O)O)ccc23)cc(C(=O)Nc2cccc3cc(S(=O)(=O)O)ccc23)c1)c1ccc(Cl)cc1`, the EC50 in experiment [1] came out at 72.8 µM.

As for `O=C(Nc1cccc2cc(S(=O)(=O)O)ccc12)c1cc(NC(=O)C2CCCCC2)cc(C(=O)Nc2cccc3cc(S(=O)(=O)O)ccc23)c1`, the result with 3T3-L1 was inactive. Take `O=C(Nc1cc(C(=O)Nc2cccc3cc(S(=O)(=O)O)ccc23)cc(C(=O)Nc2cccc3cc(S(=O)(=O)O)ccc23)c1)c1ccc([N+](=O)[O-])cc1`: the outcome in the experiment on 3T3-L1 was inactive.

For `O=C(Nc1cc(C(=O)Nc2cccc3cc(S(=O)(=O)O)ccc23)cc(C(=O)Nc2cccc3cc(S(=O)(=O)O)ccc23)c1)c1ccncc1`, the result in the experiment with 3T3-L1 was inactive. Turning to `O=C(Nc1cccc(Cl)c1)Nc1cc(C(=O)Nc2cccc3cc(S(=O)(=O)O)ccc23)cc(C(=O)Nc2cccc3cc(S(=O)(=O)O)ccc23)c1`, the outcome in the experiment with 3T3-L1 was inactive. Regarding `O=C(Cc1cccc(Cl)c1)Nc1cc(C(=O)Nc2cccc3cc(S(=O)(=O)O)ccc23)cc(C(=O)Nc2cccc3cc(S(=O)(=O)O)ccc23)c1`, the outcome in the experiment with 3T3-L1 was inactive. With `O=C(Nc1cccc2cc(S(=O)(=O)O)ccc12)c1cc(NC(=O)c2cnc3ccccc3n2)cc(C(=O)Nc2cccc3cc(S(=O)(=O)O)ccc23)c1`, the outcome in the experiment with 3T3-L1 was inactive. As for `O=C(Nc1cc(C(=O)Nc2cccc3cc(S(=O)(=O)O)ccc23)cc(C(=O)Nc2cccc3cc(S(=O)(=O)O)ccc23)c1)c1cccc([N+](=O)[O-])c1`, the 50% effective concentration (EC50) in experiment [1] came to 44.5 µM. Take `O=C(Nc1cc(C(=O)Nc2cccc3cc(S(=O)(=O)O)ccc23)cc(C(=O)Nc2cccc3cc(S(=O)(=O)O)ccc23)c1)c1cccc(Cl)c1`: in experiment [1], the EC50 is 5.7 µM.

`O=C(Nc1cc(C(=O)Nc2cccc3cc(O)ccc23)cc(C(=O)Nc2cccc3cc(S(=O)(=O)O)ccc23)c1)c1cccc(Cl)c1`: in experiment [1], the EC50 was found to be 61.7 µM. Turning to `O=C(Nc1cc(C(=O)Nc2cccc3ccccc23)cc(C(=O)Nc2cccc3cc(S(=O)(=O)O)ccc23)c1)c1cccc(Cl)c1`, the EC50 in experiment [1] amounted to 66.5 µM. Regarding `O=C(Nc1cccc2cc(S(=O)(=O)O)ccc12)c1cc(NC(=O)c2ccco2)cc(C(=O)Nc2cccc3cc(S(=O)(=O)O)ccc23)c1`, in the experiment on 3T3-L1, the result was inactive. Regarding `O=C(Nc1cc(C(=O)Nc2cccc3cc(S(=O)(=O)O)ccc23)cc(C(=O)Nc2cccc3cc(S(=O)(=O)O)ccc23)c1)c1cccnc1`, the outcome in the experiment with 3T3-L1 was inactive.

As for `O=C(Nc1cc(C(=O)Nc2cccc3cc(S(=O)(=O)O)ccc23)cc(C(=O)Nc2cccc3cc(S(=O)(=O)O)ccc23)c1)c1cccc(F)c1`, the EC50 in experiment [1] worked out at 19.4 µM. `O=C(Nc1cccc2cc(S(=O)(=O)O)ccc12)c1cc(C(=O)Nc2cccc3cc(S(=O)(=O)O)ccc23)cc(C(=O)Nc2cccc3cc(S(=O)(=O)O)ccc23)c1`: in experiment [1], the half-maximal effective concentration (EC50) was found to be 135 µM.

The record behind these values is ChEMBL document CHEMBL1145595, “5-Substituted isophthalamides as insulin receptor sensitizers” (Bioorg Med Chem Lett, 2008).
